Reference: patent US5100890A, “Arylmethylazoles and their salts, agents which contain these compounds, and their use” (priority 1985, dated 1992)
Where two headings read alike, the source gives them in different places.

How the values were obtained:
tetrabenazine ptosis [1] = assay: Effect on tetrabenazine ptosis (TBZ), mouse (Method 1); format: in vivo, mouse (NMRI); settings: po, 0.5 h
Description: (§1) The appropriate amount of a homogenate of the particular substance in aqueous carboxymethylcellulose is fed to 6 male animals by means of a gavage one hour before treatment with tetrabenazine (40 mg/kg), intraperitoneally).
(§2) 1. Test of the effect on tetrabenazine ptosis (TBZ)
(§3) Test on mice (NMRI), male, weight 19-21 g, or on rats (Wistar), male, about 120 g body weight. Preparation administered orally, homogenized in 1% strength tylose, 1 hour before tetrabenzine, 40 mg/kg, administered subcutaneously (N=6/dose). During the test, 6 animals are present together in one container. To test for upper lid ptosis, the animals are placed individually on the table top. The extent of the ptosis (0-4 points) is assessed and is expressed as a percentage of the maximum score achievable. Evaluation is carried out 30 minutes after administration of tetrabenazine.

tetrabenazine ptosis [2] = assay: Effect on tetrabenazine ptosis (TBZ), rat (Method 1); format: in vivo, rat (Wistar); settings: po, 0.5 h
Description: as §1, §2, §3

yohimbine toxicity = assay: Potentiation of the yohimbine toxicity in mice (Method 2); format: in vivo, mouse (NMRI); settings: 1 hour before yohimbine hydrochloride 20 mg/kg s.c.; for LD50, potentiation of yohimbine toxicity (Method 2, mouse): oral, deaths after 18 hours
Description: The compounds I and their acid addition salts potentiate the toxicity of yohimbine in mice. Antidepressants of type I administered orally in a dose of 0.5 to 100 mg/kg increased the death rate for an otherwise non-fatal dose of yohimbine hydrochloride (20 mg/kg, administered subcutaneously).
2. Potentiation of the yohimbine toxicity in mice
The toxicity of yohimbine, a blocker of presynaptic alpha-receptors, is potentiated by antidepressants (literature: R. M. Quinton, Brit. J. Pharmac. 21, 55-56 (1963). Male mice, NMRI strain, 20-22 g, were arranged in test groups of n=10. The test preparation was suspended in 1% strength aqueous Tylose® slime and administered orally in a volume of 10 ml/kg. Control received only the vehicle.
After a pretreatment time of 1 hour, all animals received a dose of yohimbine hydrochloride, which dose, when administered alone, is non-toxic (20 mg/kg, administered subcutaneously). The dead animals were determined 18 hours after this treatment. (Calculation of the LD50 by probit analysis).

stereotypes = assay: Test of the promotion of stereotypes in rats (Method 3); format: in vivo, rat (Wistar); settings: for ED50: read-out: ED50, dose at which half the maximum possible number of points is reached (Method 3, rat)
Description: 3. Test of the promotion of stereotypes in rats
The tests were carried out on 130-140 g male Wistar rats. The stereotypes were assessed at 15 minute intervals during the first two hours after administration of the substance, and then at half-hourly intervals up to the 6th hour. The scale below was used. […]
The number of points were calculated as a total number per 6 hours, divided by the number of observations.
The ED50 dose is the dose at which half the maximum possible number of points (5 points multiplied by the number of observations) is reached.

[3] = Mus musculus, read-out: ED50, 50% reduction in the degree of ptosis (Method 1, mouse)
[4] = Rattus norvegicus, read-out: ED50, 50% reduction in the degree of ptosis (Method 1, rat)
[5] = read-out: ED50, 50% reduction in the degree of ptosis (Method 1), mouse, p.o., 1 hour before tetrabenazine 40 mg/kg

SMILES	ED50 (tetrabenazine ptosis [1]; [3]) [mg/kg]	LD50, potentiation of yohimbine toxicity (Method 2, mouse) (yohimbine toxicity) [mg/kg]	ED50 (stereotypes; po, rat, p.o., 6 hours) [mg/kg]	other results
OC1(C(c2cccc(Cl)c2)n2ccnc2)C2CC3CC(C2)CC1C3 (racemic) [Example 25, (3-chlorophenyl)-(2-hydroxy-2-adamantyl)-(1-imidazolyl)-methane]	0.79	4.4	–	ED50 (tetrabenazine ptosis [2]; [4]): 10 mg/kg; stereotypes (Method 3, rat), in words (stereotypes; rat, up to 300 mg/kg p.o.): no stereotypes
O=C(O)C(O)C(O)C(=O)O.OC1(C(c2cccc(Cl)c2)n2ccnc2)C2CC3CC(C2)CC1C3 (single isomer, unassigned; (+)) [Example 168a, (+)-(3-chlorophenyl)-(2-hydroxy-2-adamantyl)-(1-imidazolyl)-methane hydrogen tartrate]	2.5	4.6	–	ED50 (tetrabenazine ptosis [2]; [4]): 5.5 mg/kg; ED50 (stereotypes; Rattus norvegicus, po, 6 h): 30 mg/kg
CC(C)(C)C(O)C(c1ccc(-c2ccccc2)cc1)n1ccnc1 (centres unmarked) [Example 4, 1-(4-Biphenyl)-3,3-dimethyl-1-(1-imidazolyl)-butan-2-ol]	–	5.3	> 30	–
OC(C(c1cccc(Cl)c1)n1ccnc1)C12CC3CC(CC(C3)C1)C2 (centres unmarked) [Example 105, 1-(1-Adamantyl)-2-(3-chlorophenyl)-2-(1-imidazolyl)-ethanol]	–	8.5	> 30	–
Cc1cccc(C(n2ccnc2)C2(O)C3CC4CC(C3)CC2C4)c1 (centres unmarked) [Example 106, (2-Hydroxy-2-adamantyl)-1-imidazolyl-(3-tolyl)-methane]	–	7	> 30	ED50 (tetrabenazine ptosis [1]; [5]): 1.5 mg/kg
COc1ccc(C(n2ccnc2)C2(O)C3CC4CC(C3)CC2C4)cc1OC (centres unmarked) [Example 120]	3	–	–	ED50 (Method 2, mouse) (yohimbine toxicity; p.o., given as ED50, 1080 min): 3 mg/kg
OC1(C(c2ccc3ccccc3c2)n2ccnc2)C2CC3CC(C2)CC1C3 (centres unmarked) [Example 126]	3	3.2	–	–
CN1Cc2c(N)cccc2C(c2ccccc2)C1 (centres unmarked) [Nomifensin, reference compound]	–	8.6	–	ED50 (tetrabenazine ptosis [1]; [5]): 0.72 mg/kg; ED50 (tetrabenazine ptosis [2]; read-out: ED50, 50% reduction in the degree of ptosis (Method 1), rat, p.o., 1 hour before tetrabenazine 40 mg/kg): 2.7 mg/kg; ED50 (stereotypes; Rattus norvegicus, 6 h): 11.9 mg/kg
